Test results from patent US20040220164A1, “Triaza compound immunoregulatory agents” (priority 2001, published 2004).
Converted amounts (≈) assume the structure as drawn. Where two headings read alike, the source gives them in different places.

What was measured:
[1] = Cytotoxicity assay (trypan blue exclusion, propidium iodide); format: cell-based, human; conditions: human, read-out: CC50 (50% cytotoxic concentration)
Method: Cytotoxicity Assay. Cellular toxicity of the compounds was measured by trypan blue exclusion and also by Propidium Iodide by flow cytometry after 3 or 4 days of incubation, in parallel with the CD4 antigen expression. The CC50 value of each CADA analog is the concentration (in μg/ml) required to reduce the viability of the cells by 50%.

CD4 [2] = target: T1, CD4 (Homo sapiens, UniProt P01730); assay: Cell surface CD4 expression by flow cytometry (anti-CD4 mAb Leu3a-PE); format: cell-based; parameters: To study the effect of the CADA derivatives on surface CD4 antigen expression, MT-4 and SupT1 cells were incubated; endogenous in cells; host or cells: MT-4, SupT1, PBMC; conditions: for CD4 cell surface antigen expression: percentage of positive cells, unit not given; for surface CD4 antigen expression: CADA 3.2 μM; for percentage of cell surface CD4 expression: ATA 24 μM, PMA 8 nM (FIG. 4)
Procedure, shortened: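 MT-4, SupT1 cells and PBMCs were exposed at 37° C to CADA hydrochloride (3.2 or 16 μM) for 20 min to 4 days, with ATA (24 μM) and PMA (8 nM) as comparators in SupT1. Cells were stained with PE-anti-CD4 (Leu3a) for 20 min at 4° C and fixed in 1% formaldehyde. Read-out was flow cytometry as % positive cells and MFI.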

CD4 [3] = target: T1, CD4; assay: CD4 down-modulation, flow cytometry with FITC-conjugated anti-CD4 (SK3) mAb, MT-4 cells; format: cell-based; parameters: To study the effect of the CADA derivatives on surface CD4 antigen expression, MT-4 and SupT1 cells were incubated; endogenous in cells; host or cells: MT-4, SupT1, PBMC; conditions: for down-regulation of CD4 receptor expression / IC50: MT-4 cells; for down-regulation of CD4 receptor expression: 4 days (FIG. 5); for IC50: day 3, read-out: IC50 CD4 (50% inhibition of extracellular CD4 expression) (converted)
CD4 [4] = target: T1, CD4; assay: CD4 down-modulation, flow cytometry with FITC-conjugated anti-CD4 (SK3) mAb, SupT1 cells; format: cell-based; parameters: To study the effect of the CADA derivatives on surface CD4 antigen expression, MT-4 and SupT1 cells were incubated; endogenous in cells; host or cells: MT-4, SupT1, PBMC; conditions: for IC50: day 4, read-out: IC50 CD4 (50% inhibition of extracellular CD4 expression) (converted)
Procedure, shortened: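 MT-4 and SupT1 cells were exposed at 37 °C to 5-fold compound dilutions (50–0.08 μg/ml). On day 3 (MT-4) or day 4 (SupT1) they were stained with FITC anti-CD4 (SK3) for 30 min at 4 °C and analysed by flow cytometry. IC50 was derived from MFI as % of untreated control, after isotype subtraction.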

down-regulation of CD4 receptor expression (CD4 [3]; 0.4 μg/ml)	IC50 (CD4 [3])	IC50 (CD4 [4])	down-regulation of CD4 expression (in words) (CD4 [2])	Compound	CC50 ([1]; MT-4 cells)	CC50 ([1]; SupT1 cells)	down-regulation of CD4 receptor expression (CD4 [3]; 2 μg/ml)	other results
73%	357 nM	425 nM	down-regulate CD4 expression	C=C1CN(S(=O)(=O)c2ccc(C)cc2)CCCN(CC2CCCCC2)CCCN(S(=O)(=O)c2ccc(C)cc2)C1 [QJ028]	20.7 µg/mL (≈ 35.2 µM)	28.1 µg/mL (≈ 47.8 µM)	–	CD4 down-regulating potency, fold more active than CADA (CD4 [3]; compared to CADA): 2 fold; selectivity index (CC50/IC50) (CD4 [4]): approximately 100
nor significant CD4 down-regulation	2060 nM	3270 nM	down-regulate CD4 expression	C=C1CN(S(=O)(=O)c2ccc(C)cc2)CCCN(C(=O)OCCC)CCCN(S(=O)(=O)c2ccc(C)cc2)C1 [QJ033]	25.5 µg/mL (≈ 44.1 µM)	32.5 µg/mL (≈ 56.3 µM)	69%	CD4 receptor down-modulating activity, fold higher than compound 95-213 (CD4 [3]; compared to 95-213): 5 fold

Compound	down-regulation of CD4 receptor expression (CD4 [3]; 0.4 μg/ml)	IC50 (CD4 [3])	IC50 (CD4 [4])	down-regulation of CD4 expression (in words) (CD4 [2])	CC50 ([1]; MT-4 cells)	CC50 ([1]; SupT1 cells)	down-regulation of CD4 receptor expression (CD4 [3]; 2 μg/ml)	other results
C=C1CN(S(=O)(=O)c2ccc(C)cc2)CCCN(Cc2ccccc2)CCCN(S(=O)(=O)c2ccc(C)cc2)C1 [CADA]	58%	602 nM	980 nM	–	23.6 µg/mL (≈ 40.6 µM)	> 50 µg/mL	significantly down-modulated	CD4 cell surface antigen expression (CD4 [2]; MT-4 T-cells, CADA 16 μM, 4 days): 6.3; surface CD4 antigen expression (CD4 [2]; MT-4 cells, 1 day, control 95.6%): 4.9%; surface CD4 antigen expression (CD4 [2]; MT-4 cells, 4 days, control 95.6%): 6.3%; percentage of CD4 expression (CD4 [2]; PBMCs, CADA 16 μM, 4 days): 0.2%; CD4 cell surface antigen expression (CD4 [2]; PBMCs, CADA 16 μM, 4 days): 0.2; CD4 cell surface antigen expression (CD4 [2]; SupT1 T-cells, CADA 16 μM, 4 days): 1.2; percentage of cell surface CD4 expression (CD4 [2]; SupT1 cells, 20 minutes, CADA 16 μM): still as high as in the untreated cells; percentage of cell surface CD4 expression (CD4 [2]; SupT1 cells, 4 hours, CADA 16 μM): still as high as in the untreated cells; percentage of cell surface CD4 expression (CD4 [2]; SupT1 cells, 1 day, CADA 16 μM): decrease became clearly visible; percentage of cell surface CD4 expression (CD4 [2]; SupT1 cells, 4 days, CADA 16 μM): 1.2%; surface CD4 antigen expression (CD4 [2]; SupT1 cells, 1 day, control 96.4%): 46.4%; surface CD4 antigen expression (CD4 [2]; SupT1 cells, 4 days, control 96.4%): 1.2%; effect of human serum on CD4 down-modulation induced by CADA (CD4 [2]; presence of human serum): did not affect; down-regulation of CD4 receptor expression (CD4 [3]; 0.08 μg/ml): no inhibitory effect; down-regulation of CD4 receptor expression (CD4 [3]; 10 μg/ml): significantly down-modulated
